Measurements as given in patent publication US20250319025A9, “COMPOSITIONS COMPRISING MODIFIED PHOSPHOLIPIDS AND USES THEREOF” (priority 2021, published 2025).
Several values for one entry are separate records, joined by “and”; a condition that tells them apart may be missing. Identical values can stand only once. Counter-ions that a name gives are not always drawn. Like-named read-outs stand apart in the source and are kept apart here.

Key:
[1] = Drug loading of payloads in liposomes (thin-film hydration; quantitated after liposome disruption); format: physicochemical
[2] = In vitro cumulative drug release by dialysis at 37° C.; format: physicochemical
sciatic nerve [3] = conditions: rat, in vivo
sciatic nerve [4] = experiment: Motor nerve block, weight-bearing test; conditions: rat, in vivo
Procedure: Motor nerve block was assessed by a weight-bearing test to determine the motor strength of the rat's hind paw. The rat was positioned with one hind paw on a digital balance and was allowed to bear its own weight. The maximum weight that the rat could bear without the ankle touching the balance was recorded, and motor block was considered achieved when the motor strength was less than half maximal. Measurements were repeated three times at each time point and the median was used for further data analysis.
Duration of sensory block were calculated as the time required for thermal latency to return to 7 seconds (halfway between the baseline and maximal latencies). The duration of motor block was defined as the time it took for the weight-bearing to return to halfway between normal and maximal block.

[5] = test system: sciatic nerves and surrounding tissues; conditions: rat, in vivo
[6] = pH 7.4
[7] = cited from earlier work
[8] = Phase transition temperature of acyl chain-modified phospholipids; format: physicochemical
[9] = test system: PC12 rat adrenal gland pheochromocytoma cells
physchem = conditions: pH 4
[10] = payload in aromatized liposomes containing Ph-DPPC (Lipo-Ph)
[11] = first 24 h, Lipo-Ph versus Lipo
[12] = payload from aromatized liposomes, 37° C.

Compound: tetrodotoxin [TTX]
- Drug loading, Lipo [1]: 0.11 ± 0.01%
- Drug loading, Lipo-Ph [1]: 0.13 ± 0.01%
- Increase in loading [1]: 25.5%
- Cumulative release in first 24 h, Lipo [2]: 17.1 ± 0.3%
- Cumulative release in first 24 h, Lipo-Ph [2]: 11.3 ± 0.4%
- Decrease in release [2]: 34.0%
- TTX released after 8 hours [2]: More than 95%
- Duration of nerve block (sciatic nerve [3]): 2.5 ± 0.6 h and 2.5 h
- nerve block (sciatic nerve [3]): did not induce detectable nerve block
- sensory nerve block (sciatic nerve [3]): no detectable block
- difference between the duration of sensory and motor nerve block (sciatic nerve [4]): no statistically significant difference
- Inflammation Scores, Day 4 [5]: 0
- Inflammation Scores, Day 14 [5]: 0 (0-0)
- Myotoxicity Scores, Day 4 [5]: 0
- Myotoxicity Scores, Day 14 [5]: 0
- log P (octanol-water partition coefficient) [6]: 0.13
- Log P [7]: −6.2

Compound: 1-palmitoyl-2-(16-coumarin)palmitoyl-sn-glycero-3-phosphocholine [CM-DPPC]
- phase transition temperature (Tm) [8]: 66.1 °C

Compound: CCCCCCCCCCCCCCCC(=O)OC[C@H](COP(=O)([O-])OCC[N+](C)(C)C)OC(=O)CCCCCCCCCCCCCCCOc1ccccc1 [Ph-DPPC, 1-palmitoyl-2-(16-phenoxy)palmitoyl-sn-glycero-3-phosphocholine]
- phase transition temperature (Tm) [8]: 47.4 °C

Compound: CCN(CC)c1ccc2c(-c3ccc(S(=O)(=O)O)cc3S(=O)(=O)[O-])c3ccc(=[N+](CC)CC)cc-3oc2c1 [SRho, sulforhodamine B]
- Drug loading, Lipo [1]: 2.6 ± 0.3%
- Increase in loading ([1]; Lipo-Ph versus Lipo): 19.2%
- Drug loading, Lipo-Ph [1, 10]: 3.1 ± 0.2%
- Cumulative release in first 24 h, Lipo [2]: 12.2 ± 0.5%
- Decrease in release [2, 11]: 51.6%
- Cumulative release in first 24 h, Lipo-Ph [2, 12]: 5.9 ± 0.7%
- time within which free dye was released ([2]; unencapsulated SRho in the release set-up): ≤ 6 h
- log P (octanol-water partition coefficient) [6]: −0.53

Compound: Oc1ccccc1 [Phenol, phenol]
- cytotoxicity, C2C12 (C2C12 mouse myoblasts): intrinsically toxic
- cytotoxicity, PC12 [9]: intrinsically toxic

Compound: CCCCN1CCCCC1C(=O)Nc1c(C)cccc1C (stereo not shown) [Bup, bupivacaine hydrochloride]
- Drug loading, Lipo [1]: 3.5 ± 0.7%
- Increase in loading ([1]; Lipo-Ph versus Lipo): 60.0%
- Drug loading, Lipo-Ph [1, 10]: 5.6 ± 0.8%
- Cumulative release in first 24 h, Lipo [2]: 70.7 ± 1.9%
- Decrease in release [2, 11]: 47.7%
- Cumulative release in first 24 h, Lipo-Ph [2, 12]: 37.0 ± 2.7%
- logP (physchem): -0.27

Compound: COc1cccc2c1C(=O)c1c(O)c3c(c(O)c1C2=O)C[C@@](O)(C(=O)CO)C[C@@H]3O[C@H]1C[C@H](N)[C@H](O)[C@H](C)O1 [Dox, doxorubicin hydrochloride]
- Drug loading, Lipo [1]: 0.8 ± 0.1%
- Increase in loading ([1]; Lipo-Ph versus Lipo): 30.4%
- Drug loading, Lipo-Ph [1, 10]: 1.1 ± 0.1%
- Cumulative release in first 24 h, Lipo [2]: 26.8 ± 1.1%
- Decrease in release [2, 11]: 34.3%
- Cumulative release in first 24 h, Lipo-Ph [2, 12]: 17.6 ± 1.0%
- logP (physchem): -0.22
